ChEMBL document CHEMBL1671626, “In vitro profiling of ceftaroline against a collection of recent bacterial clinical isolates from across the United States” (2008)
In brackets after ≈: the same amount, converted by molar mass.

What was measured:
Assay type in all cases: functional
Streptococcus pneumoniae [1] = test: Antibacterial activity against penicillin-susceptible Streptococcus pneumoniae assessed as susceptible isolates by CLSI M7-A7 broth microdilution method
Serratia marcescens [2] = test: Antibacterial activity against ceftazidime-susceptible Serratia marcescens assessed as resistant isolates by CLSI M7-A7 broth microdilution method
Citrobacter freundii [3] = test: Antibacterial activity against ceftazidime-susceptible Citrobacter freundii assessed as resistant isolates by CLSI M7-A7 broth microdilution method
Enterococcus faecium = test: Antibacterial activity against vancomycin-resistant Enterococcus faecium by CLSI M7-A7 broth microdilution method
Citrobacter freundii [4] = test: Antibacterial activity against ceftazidime-nonsusceptible Citrobacter freundii assessed as susceptible isolates by CLSI M7-A7 broth microdilution method
Streptococcus pyogenes = test: Antibacterial activity against erythromycin-nonsusceptible Streptococcus pyogenes by CLSI M7-A7 broth microdilution method
Escherichia coli [5] = test: Antibacterial activity against ceftazidime-susceptible Escherichia coli assessed as resistant isolates by CLSI M7-A7 broth microdilution method
Streptococcus pneumoniae [6] = test: Antibacterial activity against penicillin-resistant Streptococcus pneumoniae by CLSI M7-A7 broth microdilution method
Morganella morganii [7] = test: Antibacterial activity against ceftazidime-susceptible Morganella morganii by CLSI M7-A7 broth microdilution method
Enterobacteriaceae [8] = test: Antibacterial activity against ceftazidime-susceptible Enterobacteriaceae by CLSI M7-A7 broth microdilution method
Acinetobacter [9] = test: Antibacterial activity against multidrug-resistant Acinetobacter by CLSI M7-A7 broth microdilution method
Staphylococcus aureus [10] = test: Antibacterial activity against methicillin-susceptible Staphylococcus aureus assessed as resistant isolates by CLSI M7-A7 broth microdilution method
Staphylococcus aureus [11] = test: Antibacterial activity against methicillin-resistant Staphylococcus aureus by CLSI M7-A7 broth microdilution method
Staphylococcus aureus [12] = test: Antibacterial activity against methicillin-resistant Staphylococcus aureus assessed as susceptible isolates by CLSI M7-A7 broth microdilution method
Enterobacteriaceae [13] = test: Antibacterial activity against ceftazidime-susceptible Enterobacteriaceae assessed as susceptible isolates by CLSI M7-A7 broth microdilution method
Staphylococcus aureus [14] = test: Antibacterial activity against coagulase-negative and oxacillin-susceptible Staphylococcus aureus assessed as susceptible isolates by CLSI M7-A7 broth microdilution method
Haemophilus influenzae [15] = test: Antibacterial activity against beta lactamase-positive Haemophilus influenzae by CLSI M7-A7 broth microdilution method
Serratia marcescens [16] = test: Antibacterial activity against ceftazidime-susceptible Serratia marcescens assessed as susceptible isolates by CLSI M7-A7 broth microdilution method
Klebsiella pneumoniae [17] = test: Antibacterial activity against ceftazidime-susceptible Klebsiella pneumoniae assessed as susceptible isolates by CLSI M7-A7 broth microdilution method
Providencia sp. = test: Antibacterial activity against ceftazidime-susceptible Providencia sp. by CLSI M7-A7 broth microdilution method
Acinetobacter [18] = test: Antibacterial activity against multidrug-resistant Acinetobacter assessed as resistant isolates by CLSI M7-A7 broth microdilution method
Enterobacteriaceae [19] = test: Antibacterial activity against ceftazidime-nonsusceptible Enterobacteriaceae assessed as resistant isolates by CLSI M7-A7 broth microdilution method
Staphylococcus aureus [20] = test: Antibacterial activity against methicillin-susceptible Staphylococcus aureus assessed as susceptible isolates by CLSI M7-A7 broth microdilution method
Escherichia coli [21] = test: Antibacterial activity against ceftazidime-susceptible Escherichia coli assessed as susceptible isolates by CLSI M7-A7 broth microdilution method
Klebsiella pneumoniae [22] = test: Antibacterial activity against ceftazidime-nonsusceptible Klebsiella pneumoniae by CLSI M7-A7 broth microdilution method
Streptococcus pneumoniae [23] = test: Antibacterial activity against penicillin-susceptible Streptococcus pneumoniae by CLSI M7-A7 broth microdilution method
Moraxella catarrhalis = test: Antibacterial activity against beta lactamase-positive Moraxella catarrhalis assessed as susceptible isolates by CLSI M7-A7 broth microdilution method
Enterococcus faecalis [24] = test: Antibacterial activity against vancomycin-susceptible Enterococcus faecalis by CLSI M7-A7 broth microdilution method
Streptococcus pneumoniae [25] = test: Antibacterial activity against penicillin-susceptible Streptococcus pneumoniae assessed as resistant isolates by CLSI M7-A7 broth microdilution method
Streptococcus agalactiae = test: Antibacterial activity against erythromycin-susceptible Streptococcus agalactiae by CLSI M7-A7 broth microdilution method
Enterococcus faecalis [26] = test: Antibacterial activity against vancomycin-resistant Enterococcus faecalis by CLSI M7-A7 broth microdilution method
Proteus mirabilis [27] = test: Antibacterial activity against ceftazidime-susceptible Proteus mirabilis by CLSI M7-A7 broth microdilution method
Klebsiella pneumoniae [28] = test: Antibacterial activity against ceftazidime-susceptible Klebsiella pneumoniae assessed as resistant isolates by CLSI M7-A7 broth microdilution method
Morganella morganii [29] = test: Antibacterial activity against ceftazidime-susceptible Morganella morganii assessed as resistant isolates by CLSI M7-A7 broth microdilution method
Serratia marcescens [30] = test: Antibacterial activity against ceftazidime-susceptible Serratia marcescens by CLSI M7-A7 broth microdilution method
Haemophilus influenzae [31] = test: Antibacterial activity against beta lactamase-negative Haemophilus influenzae assessed as susceptible isolates by CLSI M7-A7 broth microdilution method
Haemophilus influenzae [32] = test: Antibacterial activity against beta lactamase-positive Haemophilus influenzae assessed as susceptible isolates by CLSI M7-A7 broth microdilution method
Enterobacteriaceae [33] = test: Antibacterial activity against ceftazidime-nonsusceptible Enterobacteriaceae assessed as susceptible isolates by CLSI M7-A7 broth microdilution method
Staphylococcus aureus [34] = test: Antibacterial activity against coagulase-negative and oxacillin-resistant Staphylococcus aureus assessed as resistant isolates by CLSI M7-A7 broth microdilution method
Enterobacter cloacae [35] = test: Antibacterial activity against ceftazidime-nonsusceptible Enterobacter cloacae assessed as susceptible isolates by CLSI M7-A7 broth microdilution method
Enterobacter cloacae [36] = test: Antibacterial activity against ceftazidime-nonsusceptible Enterobacter cloacae by CLSI M7-A7 broth microdilution method
Acinetobacter [37] = test: Antibacterial activity against imipenem-susceptible Acinetobacter assessed as resistant isolates by CLSI M7-A7 broth microdilution method
Staphylococcus aureus [38] = test: Antibacterial activity against methicillin-susceptible Staphylococcus aureus by CLSI M7-A7 broth microdilution method
Klebsiella pneumoniae [39] = test: Antibacterial activity against ceftazidime-susceptible Klebsiella pneumoniae by CLSI M7-A7 broth microdilution method
Proteus mirabilis [40] = test: Antibacterial activity against ceftazidime-susceptible Proteus mirabilis assessed as resistant isolates by CLSI M7-A7 broth microdilution method

For `CO/N=C(\C(=O)N[C@@H]1C(=O)N2C(C(=O)O)=C(CSc3nc(=O)c(O)nn3C)CS[C@H]12)c1csc(N)n1` [CEFTRIAXONE], the Activity (Streptococcus pneumoniae [1]) was 100%, the Activity (Serratia marcescens [2]) was 0% and the Activity (Citrobacter freundii [3]) was 0%. It also gave an MIC (Enterococcus faecium) greater than 32 µg/mL, an MIC50 (Enterococcus faecium) greater than 32 µg/mL and an MIC90 (Enterococcus faecium) greater than 32 µg/mL. The Activity (Citrobacter freundii [4]) was 6.1%, the MIC50 (Streptococcus pyogenes) was 0.03 µg/mL (≈ 0.0541 µM) and the MIC90 (Streptococcus pyogenes) was 0.12 µg/mL (≈ 0.216 µM). It also gave an Activity (Escherichia coli [5]) of 0%, an MIC50 (Streptococcus pneumoniae [6]) of 1 µg/mL (≈ 1.8 µM) and an MIC90 (Streptococcus pneumoniae [6]) of 2 µg/mL (≈ 3.61 µM). It also gave an MIC (Morganella morganii [7]) of no more than 0.06 µg/mL, an MIC50 (Morganella morganii [7]) of no more than 0.06 µg/mL and an MIC90 (Morganella morganii [7]) of 1 µg/mL (≈ 1.8 µM). For the same molecule, the MIC50 (Enterobacteriaceae [8]) was no more than 0.06 µg/mL, the MIC90 (Enterobacteriaceae [8]) was 0.25 µg/mL (≈ 0.451 µM) and the MIC (Acinetobacter [9]) was greater than 16 µg/mL. For the same molecule, the MIC50 (Acinetobacter [9]) was greater than 16 µg/mL, the Activity (Staphylococcus aureus [10]) was 0.3% and the MIC50 (Staphylococcus aureus [11]) was 16 µg/mL (≈ 28.9 µM). It also gave an MIC90 (Staphylococcus aureus [11]) greater than 32 µg/mL, an Activity (Staphylococcus aureus [12]) of 14.2% and an Activity (Enterobacteriaceae [13]) of 98%. The Activity (Staphylococcus aureus [14]) was 98%, the MIC (Haemophilus influenzae [15]) was no more than 0.06 µg/mL and the MIC50 (Haemophilus influenzae [15]) was no more than 0.06 µg/mL. It also gave an MIC90 (Haemophilus influenzae [15]) of no more than 0.06 µg/mL, an Activity (Serratia marcescens [16]) of 93.2% and an Activity (Klebsiella pneumoniae [17]) of 99.5%. The MIC (Providencia sp.) was no more than 0.06 µg/mL, the MIC50 (Providencia sp.) was no more than 0.06 µg/mL and the MIC90 (Providencia sp.) was 2 µg/mL (≈ 3.61 µM). For the same molecule, the Activity (Acinetobacter [18]) was 0%, the Activity (Enterobacteriaceae [19]) was 0% and the Activity (Staphylococcus aureus [20]) was 97.1%. It also gave an Activity (Escherichia coli [21]) of 97.4%, an MIC50 (Klebsiella pneumoniae [22]) greater than 16 µg/mL and an MIC90 (Klebsiella pneumoniae [22]) greater than 16 µg/mL. The MIC50 (Streptococcus pneumoniae [23]) was 0.03 µg/mL (≈ 0.0541 µM), the MIC90 (Streptococcus pneumoniae [23]) was 0.06 µg/mL (≈ 0.108 µM) and the Activity (Moraxella catarrhalis) was 100%. For the same molecule, the MIC50 (Enterococcus faecalis [24]) was greater than 32 µg/mL, the MIC90 (Enterococcus faecalis [24]) was greater than 32 µg/mL and the Activity (Streptococcus pneumoniae [25]) was 0%. For the same molecule, the MIC50 (Streptococcus agalactiae) was 0.06 µg/mL (≈ 0.108 µM), the MIC90 (Streptococcus agalactiae) was 0.12 µg/mL (≈ 0.216 µM) and the MIC (Enterococcus faecalis [26]) was greater than 1 µg/mL. For the same molecule, the MIC50 (Proteus mirabilis [27]) was no more than 0.06 µg/mL, the MIC90 (Proteus mirabilis [27]) was 0.12 µg/mL (≈ 0.216 µM) and the Activity (Klebsiella pneumoniae [28]) was 0%. The Activity (Morganella morganii [29]) was 0%, the MIC50 (Serratia marcescens [30]) was 0.25 µg/mL (≈ 0.451 µM) and the MIC90 (Serratia marcescens [30]) was 4 µg/mL (≈ 7.21 µM). The Activity (Haemophilus influenzae [31]) was 100%, the Activity (Haemophilus influenzae [32]) was 100% and the Activity (Enterobacteriaceae [33]) was 13.2%. The Activity (Staphylococcus aureus [34]) was 22.1%, the Activity (Enterobacter cloacae [35]) was 8.6% and the MIC50 (Enterobacter cloacae [36]) was greater than 16 µg/mL. It also gave an MIC90 (Enterobacter cloacae [36]) greater than 16 µg/mL, an Activity (Acinetobacter [37]) of 0% and an MIC50 (Staphylococcus aureus [38]) of 2 µg/mL (≈ 3.61 µM). The MIC90 (Staphylococcus aureus [38]) was 4 µg/mL (≈ 7.21 µM), the MIC (Klebsiella pneumoniae [39]) was no more than 0.06 µg/mL and the MIC50 (Klebsiella pneumoniae [39]) was no more than 0.06 µg/mL. The MIC90 (Klebsiella pneumoniae [39]) was 0.12 µg/mL (≈ 0.216 µM) and the Activity (Proteus mirabilis [40]) was 0%.
